“Also recorded” adds a separate entry of the source.
Key:
Assay type in all cases: cell-based
[1] = molecular target: T1, ERα (Homo sapiens, UniProt P03372); assay: ERα luciferase reporter gene transcription activation in transfected Hela cells; conditions: for ERα (% of the control) mean ± S.D. / ERα (% of estradiol): Hela cells; for ERα (% of the control) mean ± S.D.: 24 h; for ERα (% of estradiol): estradiol at 10^−8M; for concentration at which the transcriptional activity of ERα is agonized: luciferase reporter gene
T1 construct: expressed in transfected cells; host or cells: Hela cells (ER expression free)
T1 sequence (P03372 1-595): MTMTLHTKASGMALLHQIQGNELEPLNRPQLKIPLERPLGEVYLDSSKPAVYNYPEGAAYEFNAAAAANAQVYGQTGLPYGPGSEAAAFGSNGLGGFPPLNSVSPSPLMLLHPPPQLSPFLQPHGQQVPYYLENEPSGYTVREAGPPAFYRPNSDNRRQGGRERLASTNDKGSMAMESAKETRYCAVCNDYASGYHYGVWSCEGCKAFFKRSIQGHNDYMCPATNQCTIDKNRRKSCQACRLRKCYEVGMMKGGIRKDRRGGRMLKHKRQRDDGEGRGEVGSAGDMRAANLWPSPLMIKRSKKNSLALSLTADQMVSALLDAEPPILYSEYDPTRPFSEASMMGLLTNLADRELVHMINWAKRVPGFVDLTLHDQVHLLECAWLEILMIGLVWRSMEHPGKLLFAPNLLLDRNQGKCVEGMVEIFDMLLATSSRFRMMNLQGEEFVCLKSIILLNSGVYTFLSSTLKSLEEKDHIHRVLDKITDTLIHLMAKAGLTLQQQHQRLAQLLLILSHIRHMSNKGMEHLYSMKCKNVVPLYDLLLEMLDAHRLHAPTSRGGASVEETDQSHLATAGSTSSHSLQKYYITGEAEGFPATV
From the text: (§1) Actually, estrogens show their biological activity by regulating estrogen responding genetic transcription.
(§2) Formulation of sample solutions of catechin, (−)epicatechin-3-O-gallate, naringenin-4′-O-glucoside, phlorizin, emodin, chrysophanol (separately obtained from Example 1):
(§3) Catechin, (−)epicatechin-3-O-gallate, naringenin-4′-O-glucoside, phlorizin, emodin, chrysophanol in corresponding weights were separately weighed precisely, than added with DMSO for dissolution, the corresponding sample solution high dose groups (10 μM or 1 μM), were diluted in certain times to separately obtain low dose groups (1 μM to 0.001 μM).
(§4) Under condition of 37° C. and 5% CO2, Hela cells were cultured in phenol red-free high sugar DMEM culture medium containing 10% calf serum in incubator, the cells were spread in 60% density on 96-well plate when cell density was about 90%, each well was added with 150 ul of phenol red-free DMEM culture medium containing 10% serum, cultivation was performed overnight. To each well of the 96-well plate, 100 ul of serum-free DMEM culture medium and 0.4 μg plasmid (ptk-ERE-luc 2 μg, tk-Renila 1 μg, ERα or ERβ 1 μg) were used for transfection. After 6 h of transfection, each well was added with 150 ul of serum-free phenol red-free DMEM culture medium. Three wells were selected form each group, added with 10^−8M estradiol E2, and substance to be tested in different concentrations, 15 ul/well (sample 4-5 concentration gradient groups), continuously cultured under condition of 37° C., 5% CO2 for 24 h. After 24 h, each well was added with 80 μl of cell disruption solution, and the cells were subjected to freeze thawing once to be sufficiently disrupted. As for the cell lysis solution of each well, its activities to firefly luciferase and Renila luciferase were separately measured.

[2] = molecular target: T2, ERβ (Homo sapiens, UniProt Q92731); assay: ERβ luciferase reporter gene transcription activation in transfected Hela cells; conditions: for ERβ (% of the control) mean ± S.D. / ERβ (% of estradiol): Hela cells; for ERβ (% of the control) mean ± S.D.: 24 h; for ERβ (% of estradiol): estradiol at 10^−8M; for concentration at which the transcriptional activity of ERβ is agonized: luciferase reporter gene
T2 construct: expressed in transfected cells; host or cells: Hela cells (ER expression free)
From the text: as §1, §2, §3, §4

[3] = tested on: estrogen receptor; assay: Estrogen receptor activation test: overall estrogen activity and ERβ versus ERα comparison; conditions: for ERβ/ERα (both % of estradiol at 10^−8M): Hela cells; for estrogen activity / estrogen receptor activation (in words): estradiol as positive control
Experimental: as §1, §4

T2 sequence (Q92731 whole entry): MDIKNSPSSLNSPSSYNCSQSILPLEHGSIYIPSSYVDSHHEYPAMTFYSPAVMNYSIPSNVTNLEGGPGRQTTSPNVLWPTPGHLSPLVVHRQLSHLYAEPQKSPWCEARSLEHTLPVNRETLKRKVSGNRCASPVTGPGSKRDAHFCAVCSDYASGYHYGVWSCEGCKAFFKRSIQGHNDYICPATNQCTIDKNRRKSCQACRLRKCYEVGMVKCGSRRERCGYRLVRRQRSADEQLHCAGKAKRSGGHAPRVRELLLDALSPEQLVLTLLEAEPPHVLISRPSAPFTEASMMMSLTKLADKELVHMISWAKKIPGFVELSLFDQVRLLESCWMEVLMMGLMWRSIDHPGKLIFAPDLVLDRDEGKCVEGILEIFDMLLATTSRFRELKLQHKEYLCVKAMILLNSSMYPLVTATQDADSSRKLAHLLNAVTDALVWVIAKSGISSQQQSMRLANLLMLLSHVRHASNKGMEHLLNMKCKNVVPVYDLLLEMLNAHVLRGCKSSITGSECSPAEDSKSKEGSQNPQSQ

Compound	ERα (% of the control) mean ± S.D. ([1]; 10^−5 M)	ERα (% of estradiol) ([1]; 10^−5 M)	ERα (% of the control) mean ± S.D. ([1]; 10^−6 M)	ERα (% of estradiol) ([1]; 10^−6 M)	ERα (% of the control) mean ± S.D. ([1]; 10^−7 M)	ERα (% of estradiol) ([1]; 10^−7 M)	ERα (% of the control) mean ± S.D. ([1]; 10^−8 M)	ERα (% of estradiol) ([1]; 10^−8 M)	concentration at which the transcriptional activity of ERα is agonized [1]	ERβ (% of the control) mean ± S.D. ([2]; 10^−5 M)	ERβ (% of estradiol) ([2]; 10^−5 M)	ERβ (% of the control) mean ± S.D. ([2]; 10^−6 M)	ERβ (% of estradiol) ([2]; 10^−6 M)	ERβ (% of the control) mean ± S.D. ([2]; 10^−7 M)	ERβ (% of estradiol) ([2]; 10^−7 M)	ERβ (% of the control) mean ± S.D. ([2]; 10^−8 M)	ERβ (% of estradiol) ([2]; 10^−8 M)	concentration at which the transcriptional activity of ERβ is agonized [2]	ERβ/ERα (both % of estradiol at 10^−8M) ([3]; sample 10^−5 M)	ERβ/ERα (both % of estradiol at 10^−8M) ([3]; sample 10^−6 M)	also measured
O=C1C[C@@H](c2ccc(O[C@@H]3O[C@H](CO)[C@@H](O)[C@H](O)[C@H]3O)cc2)Oc2cc(O)cc(O)c21 [Naringenin-4′-O-glucoside, naringenin-4′-O-glucoside]	188.07 ± 18.61 % of the control	(91.88) % of estradiol	198.72 ± 3.99 % of the control	(97.08) % of estradiol	182.34 ± 5.97 % of the control	(89.08) % of estradiol	157.62 ± 14.54 % of the control	(77.00) % of estradiol	10^−9-10^−5 M	215.85 ± 22.32 % of the control	(108.71) % of estradiol	207.11 ± 15.76 % of the control	(104.30) % of estradiol	200.66 ± 5.22 % of the control	(101.06) % of estradiol	180.98 ± 10.46 % of the control	(91.14) % of estradiol	10^−9-10^−5 M	1.18	1.07	ERα (% of the control) mean ± S.D. ([1]; 10^−9 M): 110.04 ± 5.59 % of the control; ERα (% of estradiol) ([1]; 10^−9 M): (53.76) % of estradiol; ERβ (% of the control) mean ± S.D. ([2]; 10^−9 M): 137.90 ± 9.40 % of the control; ERβ (% of estradiol) ([2]; 10^−9 M): (69.45) % of estradiol; ERβ/ERα (both % of estradiol at 10^−8M) ([3]; sample 10^−7 M): 1.13; ERβ/ERα (both % of estradiol at 10^−8M) ([3]; sample 10^−8 M): 1.18; ERβ/ERα (both % of estradiol at 10^−8M) ([3]; sample 10^−9 M): 1.29; estrogen activity / estrogen receptor activation (in words) [3]: show relevance to estrogen receptor activation; estrogen activity / estrogen receptor activation (in words) ([3]; listed as naringenin-4′-β-glucoside): potent activity of estrogen; dose dependence of agonism of ERα and ERβ transcriptional activity ([3]; result in words): in a dose dependent manner; selectivity to receptor subtypes (ERα vs ERβ) ([3]; result in words): a higher selectivity to ERβ than ERα
O=C(CCc1ccc(O)cc1)c1c(O)cc(O)cc1O[C@@H]1O[C@H](CO)[C@@H](O)[C@H](O)[C@H]1O [Phlorizin, phlorizin]	137.71 ± 8.44 % of the control	(72.38) % of estradiol	122.09 ± 11.33 % of the control	(64.17) % of estradiol	118.40 ± 4.20 % of the control	(62.23) % of estradiol	105.43 ± 13.57 % of the control	(55.41) % of estradiol	10^−6-10^−5 M	147.95 ± 10.29 % of the control	(80.17) % of estradiol	133.79 ± 5.45 % of the control	(72.50) % of estradiol	116.14 ± 8.86 % of the control	(62.93) % of estradiol	109.38 ± 8.72 % of the control	(59.27) % of estradiol	10^−6-10^−5 M	1.11	1.13	ERβ/ERα (both % of estradiol at 10^−8M) ([3]; sample 10^−7 M): 1.01; ERβ/ERα (both % of estradiol at 10^−8M) ([3]; sample 10^−8 M): 1.07; estrogen activity / estrogen receptor activation (in words) [3]: show relevance to estrogen receptor activation; also recorded: potent activity of estrogen; selectivity to receptor subtypes (ERα vs ERβ) ([3]; result in words): no significant selectivity to receptor subtypes

From patent US20130288989A1, “NEW USE OF CHEMICAL INGREDIENTS IN CYNOMORIUM AS PHYTOESTROGEN” (TIANJIN UNIVERSITY OF TRADITIONAL CHINESE MEDICINE, priority 2010, published 2013)
